The record followed here is US10024856B2, “Identification and characterization of a peptide affinity reagent for the detection of noroviruses in clinical samples” (priority 2013, dated 2018).

For this experiment, the system named is NV-VLP. As to conditions: 0-5 μg NV-VLP adsorbed on 96-well plate; 5×10^10 pfu of phage; HRP-conjugated M13 phage antibody.
Sequence of NV-VLP (Q83884 whole entry): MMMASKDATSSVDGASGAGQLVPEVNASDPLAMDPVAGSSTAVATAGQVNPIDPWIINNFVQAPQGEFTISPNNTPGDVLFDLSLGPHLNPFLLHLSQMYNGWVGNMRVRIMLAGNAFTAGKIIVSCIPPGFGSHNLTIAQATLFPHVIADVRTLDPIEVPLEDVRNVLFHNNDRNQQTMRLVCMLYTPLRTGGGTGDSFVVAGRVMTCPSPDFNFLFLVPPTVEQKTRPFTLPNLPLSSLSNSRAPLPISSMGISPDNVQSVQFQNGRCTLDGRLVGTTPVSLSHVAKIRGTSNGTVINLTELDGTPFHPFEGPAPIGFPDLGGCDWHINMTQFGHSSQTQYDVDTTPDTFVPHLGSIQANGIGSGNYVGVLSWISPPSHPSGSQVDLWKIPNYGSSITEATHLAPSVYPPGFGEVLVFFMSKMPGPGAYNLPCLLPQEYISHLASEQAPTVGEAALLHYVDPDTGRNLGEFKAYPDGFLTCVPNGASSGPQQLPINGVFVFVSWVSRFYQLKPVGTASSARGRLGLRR

Description: NV-VLP (5, 2.5, 1.25, 0.63 μg) or 5 μg of unrelated protein BSA was immobilized and binding of each phage, indicated on the X-axis, was detected by M13 phage antibody. OD450 signal is indicated on the Y-axis.
Enzyme-linked immunosorbent assay (ELISA)—Initial ELISA experiments were performed by directly coating 0-5 μg of NV-VLP in 96-well polystyrene plates overnight. Wells were blocked with 2% milk in PBS for 2 hours at room temperature. After washing 3 times with PBS, 1×10^11 phage in 1% milk-PBS were added and incubated at room temperature with gentle rocking for 2 hours. Plates were washed 10 times with PBS-T. HRP-conjugated M13-antibody (Pharmacia Biotech) was diluted 1:5000 in 1% milk PBS and 100 μl was added to each well and incubated at room temperature for 45 minutes. After washing with PBS-T, HRP substrate, 3,3′,5′-tetramethylbenzidine (TMB)(KPL) was added to each well. Development was allowed to proceed for 10-20 minutes and stopped with 1M H3PO4 (KPL). Optical density was measured at 450 nm on a Tecan infinite M200pro plate reader.
The binding of each phage clone to immobilized NV-VLP was tested by phage ELISA. For these experiments, 0-5 μg of NV-VLP or bovine serum albumin (BSA), as a negative control, was adsorbed onto a 96-well plate and 5×10^10 pfu of phage were added to each well and binding was detected with an HRP-conjugated M13 phage antibody (FIG. 1).

IQYRSWIPFSYP [NV-O-R5-6]: the “Binding to immobilized NV-VLP (ELISA signal, OD450)” value is “weakest signals”.
